Results: the supplement of paper PMC8967900

Columns and labels:
Experiment in all cases: selective drug sensitivity score (sDSS, relative to normal bone marrow) (sDSS (score)); higher = more potent and effective on the cell line relative to normal bone marrow cells
Conditions in all cases: 72 h
ALL-PO = test system: ALL-PO
CCRF-CEM = test system: CCRF-CEM
COG-LL-332h = test system: COG-LL-332h
COG-LL-394h = test system: COG-LL-394h
HAL-01 = test system: HAL-01
KASUMI-10 = test system: KASUMI-10
KOPN-8 = test system: KOPN-8
MHH-CALL-2 = test system: MHH-CALL-2
MOLT-14 = test system: MOLT-14
MOLT-16 = test system: MOLT-16
NALL-1 = test system: NALL-1
NALM-6 = test system: NALM-6
P12-ICHIKAWA = test system: P12-ICHIKAWA
P30-OHKUBO = test system: P30-OHKUBO
PEER = test system: PEER
PF-382 = test system: PF-382
RCH-ACV = test system: RCH-ACV
REH = test system: REH
RPMI-8402 = test system: RPMI-8402
TMD5 = test system: TMD5
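Further: ALL cell lines in 384-well plates, five doses spanning 10,000-fold, each plate scaled between vehicle and 100 µmol/L benzalkonium chloride controls, sDSS an adapted area-under-curve metric.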

Row | SMILES | selective drug sensitivity score (ALL-PO) | selective drug sensitivity score (CCRF-CEM) | selective drug sensitivity score (COG-LL-332h) | selective drug sensitivity score (COG-LL-394h) | selective drug sensitivity score (HAL-01) | selective drug sensitivity score (KASUMI-10) | selective drug sensitivity score (KOPN-8) | selective drug sensitivity score (MHH-CALL-2) | selective drug sensitivity score (MOLT-14) | selective drug sensitivity score (MOLT-16) | selective drug sensitivity score (NALL-1) | selective drug sensitivity score (NALM-6) | selective drug sensitivity score (P12-ICHIKAWA) | selective drug sensitivity score (P30-OHKUBO) | selective drug sensitivity score (PEER) | selective drug sensitivity score (PF-382) | selective drug sensitivity score (RCH-ACV) | selective drug sensitivity score (REH) | selective drug sensitivity score (RPMI-8402) | selective drug sensitivity score (TMD5)
1 | Cn1cc(-c2[nH]c3cc(NC(=O)[C@H](N)C4CCCCC4)cc4c3c2C=NNC4=O)cn1 (top concentration 10000 nM) | 9.28 | 6.08 | 4.98 | -0.72 | -6.52 | 5.88 | 7.38 | 3.48 | 2.68 | 9.68 | 4.58 | 6.28 | 7.38 | 9.08 | 5.68 | 4.48 | 11.5 | 10.2 | 9.68 | -0.12
2 | CN[C@@H](C)C(=O)N[C@H](C(=O)N1CCC[C@H]1c1nc(C(=O)c2ccc(F)cc2)cs1)C1CCCCC1 [NVP-LCL161] (top concentration 25000 nM) | 0.38 | 1.18 | 2.38 | 6.58 | 7.88 | -3.52 | 0.28 | 3.98 | -3.52 | -1.62 | 2.48 | -5.82 | -4.32 | -1.12 | -2.72 | -4.12 | -0.52 | 2.38 | -2.42 | -1.92
3 | Cc1ncc(Cl)cc1NCc1ccc(C(=O)N[C@@H](CC2CCCC2)C(=O)NC2CC2)s1 (top concentration 5000 nM) | -0.94 | -0.94 | 1.86 | 1.36 | 1.16 | 2.46 | 2.96 | -0.24 | 2.96 | 3.96 | -0.94 | -0.94 | -0.94 | -0.94 | -0.24 | -0.94 | 1.46 | -0.84 | -0.94 | -0.94
4 | O=C1CCc2c(Oc3ccc4c(c3)[C@@H]3[C@H](O4)[C@H]3c3nc4cc(C(F)(F)F)ccc4[nH]3)ccnc2N1 [Lifirafenib (BGB-283)] (top concentration 10000 nM) | 6.98 | 4.18 | 8.18 | 6.88 | 6.48 | 7.98 | 13.1 | 4.88 | 4.58 | 3.98 | 8.28 | 5.58 | 3.18 | 5.28 | 10.7 | 3.18 | 10.3 | 3.48 | 2.28 | 15.9
5 | O=C(/C=C\n1cnc(-c2cc(C(F)(F)F)cc(C(F)(F)F)c2)n1)NNc1cnccn1 [Selinexor] (top concentration 10000 nM) | 13.5 | 9.38 | 9.68 | 5.78 | 9.08 | 3.78 | 17.1 | 7.48 | 16.7 | 13.9 | 2.98 | 13 | 10.1 | 9.28 | 10.2 | 9.78 | 13.7 | 10.3 | 12.3 | 0.38
6 | O=C(Nc1c[nH]nc1-c1nc2ccc(CN3CCOCC3)cc2[nH]1)NC1CC1 [AT9283] (top concentration 1000 nM) | 6.32 | 12.5 | 11.7 | 1.02 | 1.92 | 8.42 | 10.3 | 3.42 | 13.8 | 8.22 | 9.02 | 6.82 | 13 | 16 | 15.9 | 7.72 | 6.02 | 11.6 | 4.32 | 7.32
7 | Cc1nc(Nc2n[nH]c3c2CN(C(=O)N[C@H](CN(C)C)c2ccccc2)C3(C)C)c2sccc2n1 (top concentration 10000 nM) | 5.58 | 6.98 | 7.58 | -7.92 | -10.5 | 1.68 | 18.3 | 0.38 | 7.18 | 22.7 | -7.42 | 1.18 | 3.68 | 12 | -3.12 | 1.98 | 22.7 | -3.72 | 6.38 | -7.92
8 | C[C@H](Nc1ncnc2nc[nH]c12)c1cc2cccc(Cl)c2c(=O)n1-c1ccccc1 [Duvelisib] (top concentration 500 nM) | 0.86 | 4.36 | 2.46 | -0.84 | 9.76 | -0.94 | 0.16 | -0.94 | -0.94 | 1.26 | -0.94 | 4.36 | -0.44 | 5.76 | -0.94 | -0.94 | 21 | -0.94 | -0.94 | -0.94
9 | CNC(=O)c1cccc(-c2ccc3c(N4CCOC[C@@H]4C)nc(N4CCOC[C@@H]4C)nc3n2)c1 [Vistusertib] (top concentration 10000 nM) | 10 | 8.22 | 4.62 | -1.28 | 5.12 | 0.32 | 19.7 | 9.52 | 2.12 | 5.62 | -3.58 | 3.92 | 3.72 | 11.7 | 5.22 | 7.02 | 24.5 | 9.32 | 5.52 | 3.02
10 | C[C@H]1O[C@@H](O[C@H]2[C@@H](O)C[C@H](O[C@H]3[C@@H](O)C[C@H](O[C@H]4CC[C@@]5(C)[C@H](CC[C@@H]6[C@@H]5C[C@@H](O)[C@]5(C)[C@@H](C7=CC(=O)OC7)CC[C@]65O)C4)O[C@@H]3C)O[C@@H]2C)C[C@H](O)[C@@H]1O [Digoxin] (top concentration 1000 nM) | 4 | 8.9 | 9.8 | 4.1 | 9.9 | 10 | 12.9 | 11.9 | 8 | 12 | 6.3 | 10.5 | 8.2 | 9.1 | 5.5 | 11.1 | 8.1 | 6.3 | 8.3 | 6.9
11 | O=C(Nc1ccc2[nH]nc(-c3ccncc3)c2c1)[C@@H]1CCN(CC(=O)N2CCN(c3ccc(-c4ncccn4)cc3)CC2)C1 (top concentration 10000 nM) | 3.76 | -0.54 | -0.54 | -0.14 | 0.06 | -0.74 | 12.9 | 1.26 | 8.56 | 1.06 | -4.14 | 4.76 | 1.06 | -3.74 | 2.16 | 0.56 | -0.44 | 4.86 | -1.64 | -0.34
12 | Nc1ccn([C@@H]2O[C@H](CO)[C@@H](O)C2(F)F)c(=O)n1 [Gemcitabine] (top concentration 1000 nM) | 8.06 | 14.5 | 17.8 | -8.04 | 20.4 | 16.8 | 26.4 | 21.6 | 14.3 | 21.5 | 10.3 | 14.5 | 15.8 | 18 | 5.06 | 13.5 | 18.5 | 13 | 9.56 | -7.84
13 | NC1(c2ccc(-c3nc4ccn5c(=O)[nH]nc5c4cc3-c3ccccc3)cc2)CCC1 [MK-2206] (top concentration 1000 nM) | 5.46 | 6.36 | 2.86 | -1.64 | 6.96 | -0.44 | 3.46 | 9.66 | -1.64 | 6.16 | 6.26 | 2.76 | 1.66 | 6.36 | -1.64 | 3.26 | 13.2 | 6.26 | 1.96 | 7.36
14 | CC(C)Nc1cc(-c2c[nH]c(C(=O)N[C@H](CO)c3cccc(Cl)c3)c2)c(Cl)cn1 [Ulixertinib] (top concentration 10000 nM) | 6.72 | 2.82 | 1.92 | -0.18 | 1.92 | -3.08 | 5.42 | 2.72 | 6.12 | 2.42 | 3.92 | 0.12 | 1.22 | -0.18 | 3.62 | -0.28 | 2.82 | -1.08 | -1.38 | 2.12
15 | COCCNCc1ccc(-c2cc3nccc(Oc4ccc(NC(=O)C5(C(=O)Nc6ccc(F)cc6)CC5)cc4F)c3s2)nc1 [Sitravatinib] (top concentration 2500 nM) | 14.8 | 0.18 | 5.98 | 3.08 | 5.28 | 20 | 8.08 | 6.78 | 1.08 | -0.42 | 9.38 | -0.12 | 0.08 | 5.78 | 7.38 | 1.08 | 7.38 | 2.88 | 2.38 | 11
16 | CC(C)(C)c1cc(NC(=O)Nc2ccc(Oc3ccnc4[nH]c(=O)cnc34)cc2F)n(-c2ccccc2)n1 (top concentration 25000 nM) | 5.72 | -2.18 | 2.02 | 0.82 | 2.02 | 5.62 | 2.22 | -1.48 | -4.58 | -1.08 | -0.38 | -0.98 | -4.58 | -0.08 | 5.32 | -3.88 | 3.82 | -0.78 | -3.18 | 2.32
17 | CN[C@@H]1C[C@H]2O[C@@](C)([C@@H]1OC)n1c3ccccc3c3c4c(c5c6ccccc6n2c5c31)C(=O)N[C@H]4O [UCN-01] (top concentration 10000 nM) | 8.64 | 6.04 | 1.44 | -1.46 | 2.94 | 6.94 | 10.6 | 7.94 | 6.14 | 8.64 | 0.94 | 4.94 | 5.94 | 7.74 | -0.66 | 5.44 | 18 | 5.24 | 5.24 | -0.36
